The results in this text go back to ChEMBL document CHEMBL1122167, “Syntheses and adrenergic agonist properties of ring-fluorinated isoproterenols” (J Med Chem, 1982).

Assay [1] has as its target Adrenergic receptor alpha.
In assay [2] the target is Adrenergic receptor beta (Homo sapiens, UniProt P08588+P07550+P13945).
Description: Evaluated for Beta adrenergic receptor agonistic property in isolated guinea pig atria
For assay [3], the target named is Adrenergic receptor beta (Rattus norvegicus, UniProt P18090+P10608+P26255).

Molecules are shown by their SMILES.

`CC(C)NCC(O)c1ccc(O)c(O)c1` (racemic) [ISOPROTERENOL] registered an IC50 in assay [1] of more than 100 µM.
`CC(C)NCC(O)c1cc(O)c(O)cc1F` (stereo not given): the results for the 50% inhibitory concentration (IC50) in assay [1] and in assay [3] were 80 µM and 5.5 µM, respectively. In assay [2], this compound showed an EC50 of 30 µM.
For `CC(C)NCC(O)c1ccc(O)c(O)c1F` (stereo not given) the same measures were 59 µM, 0.5 µM and 0.01 µM.
Regarding `CC(C)NCC(O)c1cc(O)c(O)c(F)c1` (stereo not given), the results for the IC50 in assay [1] and in assay [3] were 55 µM and 0.6 µM, respectively. This compound also had a concentration giving a half-maximal response (EC50) in assay [2] of 0.02 µM.
